Reference: ChEMBL document CHEMBL3124819, “2',4'-Difluoro-2'-methyl Substituted Nucleoside Derivatives as Inhibitors of HCV RNA Replication” (ACS Med Chem Lett, 2014)

Legend:
[1] = Cytotoxicity against human HuH7 cells after 2 hrs by WST-1 assay relative to control; format: cell-based, Huh-7
[2] = tested on: Hepatitis C virus; assay: Antiviral activity against HCV genotype 1b infected in human HuH7 cells assessed as inhibition of viral RNA replication after 3 days by luciferase reporter gene assay; format: functional, organism-based, Hepacivirus hominis; details: Huh-7, 72 h

Row | Compound | CC50 at 2 h [1] [µM] | IC50 [2] [nM]
1 | CCC(=O)O[C@H]1[C@@](C)(F)[C@H](n2ccc(=O)[nH]c2=O)O[C@]1(F)COP(=O)(N[C@@H](C)C(=O)OC(C)C)Oc1cccc2ccccc12 (stereo partly specified) | 67.8 | 152
2 | CC(C)OC(=O)[C@H](C)NP(=O)(OC[C@@]1(F)O[C@@H](n2ccc(=O)[nH]c2=O)[C@](C)(F)[C@@H]1O)Oc1ccc2ccccc2c1 (stereo partly specified) | > 100 | –
3 | CC(C)OC(=O)[C@H](C)NP(=O)(OC[C@@]1(F)O[C@@H](n2ccc(=O)[nH]c2=O)[C@](C)(F)[C@@H]1O)Oc1cccc2ccccc12 (stereo partly specified) | > 100 | 115
4 | CC(C)OC(=O)[C@H](C)NP(=O)(OC[C@@]1(F)O[C@@H](n2ccc(=O)[nH]c2=O)[C@](C)(F)[C@@H]1O)Oc1ccccc1 (stereo partly specified) | > 100 | –
